Laboratory results published in patent US20130072430A1, “METHODS FOR TREATMENT OR PROPHYLAXIS OF KIDNEY OR LIVER DYSFUNCTION” (NPS PHARMACEUTICALS, INC., priority 2010, published 2013).

Test system: Human patients with short bowel syndrome
Assay: Example 2: liver biomarkers (albumin, gamma glutamyl transferase, total bilirubin, ALT, AST, ALP) in short bowel syndrome patients, every four weeks for 24 weeks
Format: in vivo
Details: 0.05 mg/kg/d; for Gamma Glutamyl Transferase Change from Baseline, Median / Gamma Glutamyl Transferase Observed Value, Mean / Gamma Glutamyl Transferase Observed Value, Median / ALKALINE PHOSPHATASE Change from Baseline, Median / ALT Change from Baseline, Mean / ALT Change from Baseline, Median / ALT Observed Value, Mean / ALT Observed Value, Median / AST Change from Baseline, Mean / AST Change from Baseline, Median / AST Observed Value, Mean / AST Observed Value, Median / Albumin Change from Baseline, Mean / Albumin Change from Baseline, Median / Albumin Observed Value, Mean / Albumin Observed Value, Median / Alkaline Phosphatase Change from Baseline, Mean / Alkaline Phosphatase Observed Value, Mean / Alkaline Phosphatase Observed Value, Median / Bilirubin Change from Baseline, Mean / Bilirubin Change from Baseline, Median / Bilirubin Observed Value, Mean / Bilirubin Observed Value, Median / Gamma Glutamyl Transferase Change from Baseline, Mean: n=40; for ALT >10% decrease from Baseline, % of subjects / ALT >10% decrease from Baseline, n subjects / ALT >10% increase from Baseline, % of subjects / ALT >10% increase from Baseline, n subjects / ALT Within 10% of Baseline, % of subjects / ALT Within 10% of Baseline, n subjects / AST >10% decrease from Baseline, % of subjects / AST >10% decrease from Baseline, n subjects / AST >10% increase from Baseline, % of subjects / AST >10% increase from Baseline, n subjects / AST Within 10% of Baseline, % of subjects / AST Within 10% of Baseline, n subjects / Albumin >10% decrease from Baseline, % of subjects / Albumin >10% decrease from Baseline, n subjects / Albumin >10% increase from Baseline, % of subjects / Albumin >10% increase from Baseline, n subjects / Albumin Within 10% of Baseline, % of subjects / Albumin Within 10% of Baseline, n subjects / Alkaline Phosphatase >10% decrease from Baseline, % of subjects / Alkaline Phosphatase >10% decrease from Baseline, n subjects / Alkaline Phosphatase >10% increase from Baseline, % of subjects / Alkaline Phosphatase >10% increase from Baseline, n subjects / Alkaline Phosphatase Within 10% of Baseline, % of subjects / Alkaline Phosphatase Within 10% of Baseline, n subjects / Bilirubin >10% decrease from Baseline, % of subjects / Bilirubin >10% decrease from Baseline, n subjects / Bilirubin >10% increase from Baseline, % of subjects / Bilirubin >10% increase from Baseline, n subjects / Bilirubin Within 10% of Baseline, % of subjects / Bilirubin Within 10% of Baseline, n subjects: m=40
Experimental: To further confirm the results of Example 1, a further study was conducted involving more individuals and additional diagnostic biomarkers. Human patients with short bowel syndrome were divided into two groups: a control group (43 total individuals) to receive placebo, and an experimental group (42 total individuals) to receive teduglutide at 0.05 mg/kg/day throughout the study. Patients were treated by subcutaneous injection of placebo or the appropriate dose of teduglutide. Known biomarkers of liver function were monitored every four weeks, for 24 weeks. The liver biomarkers tested included albumin, gamma glutamyl transferase, total bilirubin, ALT and AST and ALP. Before administration of placebo or teduglutide, diagnostic biomarker levels were tested to establish a baseline for each individual.
To determine the effect of GLP-2 on the levels of the diagnostic biomarkers, the average level of each biomarker was measured for the placebo and teduglutide treated groups for each visit. Furthermore, the average change from baseline was calculated using the established baseline values. For FIGS. 17-28, p-values were calculated using the t-test.
P values are provided, which were calculated for each distribution of biomarker changes for each week using the chi-squared test.

Structure (SMILES): CC[C@H](C)[C@H](NC(=O)[C@H](Cc1ccccc1)NC(=O)[C@H](CC(=O)O)NC(=O)[C@H](CCCNC(=N)N)NC(=O)[C@H](C)NC(=O)[C@H](C)NC(=O)[C@H](CC(C)C)NC(=O)[C@H](CC(N)=O)NC(=O)[C@H](CC(=O)O)NC(=O)[C@H](CC(C)C)NC(=O)[C@@H](NC(=O)[C@@H](NC(=O)[C@H](CC(N)=O)NC(=O)[C@H](CCSC)NC(=O)[C@H](CCC(=O)O)NC(=O)[C@H](CC(=O)O)NC(=O)[C@H](CO)NC(=O)[C@H](Cc1ccccc1)NC(=O)[C@H](CO)NC(=O)CNC(=O)[C@H](CC(=O)O)NC(=O)CNC(=O)[C@@H](N)Cc1c[nH]cn1)[C@@H](C)O)[C@@H](C)CC)C(=O)N[C@@H](CC(N)=O)C(=O)N[C@@H](Cc1c[nH]c2ccccc12)C(=O)N[C@@H](CC(C)C)C(=O)N[C@H](C(=O)N[C@@H](CCC(N)=O)C(=O)N[C@H](C(=O)N[C@@H](CCCCN)C(=O)N[C@H](C(=O)N[C@H](C(=O)N[C@@H](CC(=O)O)C(=O)O)[C@@H](C)O)[C@@H](C)CC)[C@@H](C)O)[C@@H](C)CC [teduglutide]
- Gamma Glutamyl Transferase Change from Baseline, Median (Week 2): 2.5 U/L
- Gamma Glutamyl Transferase Observed Value, Mean (Week 2): 84.6 U/L
- Gamma Glutamyl Transferase Observed Value, Median (Week 2): 52.5 U/L
- ALT >10% decrease from Baseline, % of subjects (Week 4): (65.0%)
- ALT >10% decrease from Baseline, n subjects (Week 4): 26
- ALT >10% increase from Baseline, % of subjects (Week 4): (15.0%)
- ALT >10% increase from Baseline, n subjects (Week 4): 6
- ALT Within 10% of Baseline, % of subjects (Week 4): (20.0%)
- ALT Within 10% of Baseline, n subjects (Week 4): 8
- AST >10% decrease from Baseline, % of subjects (Week 4): (65.0%)
- AST >10% decrease from Baseline, n subjects (Week 4): 26
- AST >10% increase from Baseline, % of subjects (Week 4): (20.0%)
- AST >10% increase from Baseline, n subjects (Week 4): 8
- AST Within 10% of Baseline, % of subjects (Week 4): (15.0%)
- AST Within 10% of Baseline, n subjects (Week 4): 6
- Albumin >10% decrease from Baseline, % of subjects (Week 4): (7.5%)
- Albumin >10% decrease from Baseline, n subjects (Week 4): 3
- Albumin >10% increase from Baseline, % of subjects (Week 4): (5.0%)
- Albumin >10% increase from Baseline, n subjects (Week 4): 2
- Albumin Within 10% of Baseline, % of subjects (Week 4): (87.5%)
- Albumin Within 10% of Baseline, n subjects (Week 4): 35
- Alkaline Phosphatase >10% decrease from Baseline, % of subjects (Week 4): (55.0%)
- Alkaline Phosphatase >10% decrease from Baseline, n subjects (Week 4): 22
- Alkaline Phosphatase >10% increase from Baseline, % of subjects (Week 4): (5.0%)
- Alkaline Phosphatase >10% increase from Baseline, n subjects (Week 4): 2
- Alkaline Phosphatase Within 10% of Baseline, % of subjects (Week 4): (40.0%)
- Alkaline Phosphatase Within 10% of Baseline, n subjects (Week 4): 16
- Bilirubin >10% decrease from Baseline, % of subjects (Week 4): (47.5%)
- Bilirubin >10% decrease from Baseline, n subjects (Week 4): 19
- Bilirubin >10% increase from Baseline, % of subjects (Week 4): (35.0%)
- Bilirubin >10% increase from Baseline, n subjects (Week 4): 14
- Bilirubin Within 10% of Baseline, % of subjects (Week 4): (17.5%)
- Bilirubin Within 10% of Baseline, n subjects (Week 4): 7
- ALKALINE PHOSPHATASE Change from Baseline, Median (Week 4): −15.5 U/L
- ALT Change from Baseline, Mean (Week 4): −9.2 U/L
- ALT Change from Baseline, Median (Week 4): −7 U/L
- ALT Observed Value, Mean (Week 4): 34.9 U/L
- ALT Observed Value, Median (Week 4): 29 U/L
- AST Change from Baseline, Mean (Week 4): −3.5 U/L
- AST Change from Baseline, Median (Week 4): −5 U/L
- AST Observed Value, Mean (Week 4): 29.1 U/L
- AST Observed Value, Median (Week 4): 26.5 U/L
- Albumin Change from Baseline, Mean (Week 4): -0.7 g/L
- Albumin Change from Baseline, Median (Week 4): -1 g/L
- Albumin Observed Value, Mean (Week 4): 41.7 g/L
- Albumin Observed Value, Median (Week 4): 42 g/L
- Alkaline Phosphatase Change from Baseline, Mean (Week 4): −20.5 U/L
- Alkaline Phosphatase Observed Value, Mean (Week 4): 115.8 U/L
- Alkaline Phosphatase Observed Value, Median (Week 4): 101 U/L
- Bilirubin Change from Baseline, Mean (Week 4): -1.10 µmol/L
- Bilirubin Change from Baseline, Median (Week 4): -1.5 µmol/L
- Bilirubin Observed Value, Mean (Week 4): 11.31 µmol/L
- Bilirubin Observed Value, Median (Week 4): 9.55 µmol/L
- Gamma Glutamyl Transferase Change from Baseline, Mean (Week 4): 1.7 U/L
- Gamma Glutamyl Transferase Change from Baseline, Median (Week 4): −0.5 U/L
- Gamma Glutamyl Transferase Observed Value, Mean (Week 4): 78.9 U/L
- Gamma Glutamyl Transferase Observed Value, Median (Week 4): 53.5 U/L
- ALT >10% decrease from Baseline, % of subjects (Week 8): (65.0%)
- ALT >10% decrease from Baseline, n subjects (Week 8): 26
- ALT >10% increase from Baseline, % of subjects (Week 8): (17.5%)
- ALT >10% increase from Baseline, n subjects (Week 8): 7
- ALT Within 10% of Baseline, % of subjects (Week 8): (17.5%)
- ALT Within 10% of Baseline, n subjects (Week 8): 7
- AST >10% decrease from Baseline, % of subjects (Week 8): (60.0%)
- AST >10% decrease from Baseline, n subjects (Week 8): 24
- AST >10% increase from Baseline, % of subjects (Week 8): (20.0%)
- AST >10% increase from Baseline, n subjects (Week 8): 8
- AST Within 10% of Baseline, % of subjects (Week 8): (20.0%)
- AST Within 10% of Baseline, n subjects (Week 8): 8
- Albumin >10% decrease from Baseline, % of subjects (Week 8): (2.5%)
- Albumin >10% decrease from Baseline, n subjects (Week 8): 1
- Albumin >10% increase from Baseline, % of subjects (Week 8): (2.5%)
- Albumin >10% increase from Baseline, n subjects (Week 8): 1
- Albumin Within 10% of Baseline, % of subjects (Week 8): (95.0%)
- Albumin Within 10% of Baseline, n subjects (Week 8): 38
- Alkaline Phosphatase >10% decrease from Baseline, % of subjects (Week 8): (62.5%)
- Alkaline Phosphatase >10% decrease from Baseline, n subjects (Week 8): 25
- Alkaline Phosphatase >10% increase from Baseline, % of subjects (Week 8): (5.0%)
- Alkaline Phosphatase >10% increase from Baseline, n subjects (Week 8): 2
- Alkaline Phosphatase Within 10% of Baseline, % of subjects (Week 8): (32.5%)
- Alkaline Phosphatase Within 10% of Baseline, n subjects (Week 8): 13
- Bilirubin >10% decrease from Baseline, % of subjects (Week 8): (50.0%)
- Bilirubin >10% decrease from Baseline, n subjects (Week 8): 20
- Bilirubin >10% increase from Baseline, % of subjects (Week 8): (25.0%)
- Bilirubin >10% increase from Baseline, n subjects (Week 8): 10
- Bilirubin Within 10% of Baseline, % of subjects (Week 8): (25.0%)
- Bilirubin Within 10% of Baseline, n subjects (Week 8): 10
- ALKALINE PHOSPHATASE Change from Baseline, Median (Week 8): −18.5 U/L
- ALT Change from Baseline, Mean (Week 8): −10.2 U/L
- ALT Change from Baseline, Median (Week 8): −5.5 U/L
- ALT Observed Value, Mean (Week 8): 33.9 U/L
- ALT Observed Value, Median (Week 8): 26 U/L
- AST Change from Baseline, Mean (Week 8): −5.1 U/L
- AST Change from Baseline, Median (Week 8): −5 U/L
- AST Observed Value, Mean (Week 8): 27.5 U/L
- AST Observed Value, Median (Week 8): 23.5 U/L
- Albumin Change from Baseline, Mean (Week 8): -0.7 g/L
- Albumin Change from Baseline, Median (Week 8): -1 g/L
- Albumin Observed Value, Mean (Week 8): 41.7 g/L
- Albumin Observed Value, Median (Week 8): 42 g/L
- Alkaline Phosphatase Change from Baseline, Mean (Week 8): −24.3 U/L
- Alkaline Phosphatase Observed Value, Mean (Week 8): 112.0 U/L
- Alkaline Phosphatase Observed Value, Median (Week 8): 94 U/L
- Bilirubin Change from Baseline, Mean (Week 8): -1.60 µmol/L
- Bilirubin Change from Baseline, Median (Week 8): -0.95 µmol/L
- Bilirubin Observed Value, Mean (Week 8): 10.81 µmol/L
- Bilirubin Observed Value, Median (Week 8): 7.75 µmol/L
- Gamma Glutamyl Transferase Change from Baseline, Mean (Week 8): −5.7 U/L
